Values quoted from earlier work as cited in PubChem BioAssay AID1259409 (Chemical Carcinogenesis Research Information System (CCRIS), 2018).

Tested on: rodent chemically induced tumor inhibition, incidence and multiplicity
Assay: CCRIS tumor inhibitor studies

SMILES: CS(=O)(=O)Nc1ccc([N+](=O)[O-])cc1Oc1ccccc1
- tumour outcome (control, treated, inhibition, significance) (Carcinogen: 2-AMINO-1-METHYL-6-PHENYL-1H-IMIDAZO[4,5-B]PYRID INE [105650-23-5], Dose [Inhibitor]: 0, 400 PPM IN DIET FOR DURATION OF STUDY BEGINNING 1 D PRIOR TO CARCINOGEN TREATMENT (STUDY DURATION: 21 WK), Route [Inhibitor]: ORAL, Species: RAT, Strain/Sex: SPRAGUE-DAWLEY/FEMALE, Target Tissue: Type of Lesion: MAMMARY GLAND: DUCTAL CARCINOMA, Dose [Carcinogen]: 85 MG/KG BW 4X/WK FOR 2 WK): 30/42 (71%), 19/37 (51%), 28.2%, not significant
- tumour outcome (control, treated, inhibition, significance) (Carcinogen: 7, 12-DIMETHYLBENZ(A)ANTHRACENE [57-97-6], Dose [Inhibitor]: 5 MG/KG BW TWICE WEEKLY BEGINNING 3 D BEFORE FIRST CARCINOGEN DOSE FOR 13 WK (STUDY DURATION: 13 WK), Route [Inhibitor]: SUBCUTANEOUS, Species: RAT, Strain/Sex: SPRAGUE-DAWLEY/FEMALE, Target Tissue: Type of Lesion: MAMMARY GLAND: TUMOR, Dose [Carcinogen]: 10 MG THREE TIMES BETWEEN POSTNATAL DAYS 45-59): 23/24 (95.8%), 24/25 (96.0%), -0.2%, not significant
- tumour outcome (control, treated, inhibition, significance) (Carcinogen: AZOXYMETHANE (25843-45-2), Dose [Inhibitor]: 0, 0.04% 1 WK AFTER END OF DEXTRAN SODIUM SULFATE TREATMENT FOR 14 WKS (STUDY DURATION: 17 WKS), Route [Inhibitor]: DIET, Species: MOUSE, Strain/Sex: CD-1/FEMALE (10,10)/(10,10), Target Tissue: Type of Lesion: COLON: ADENOMA, Dose [Carcinogen]: 10 MG/KG ONCE, Promoter: DEXTRAN SODIUM SULFATE (9011-18-1)): 10/10 (100%), 6/10 (60%), 40%, p<0.05
- tumour outcome (control, treated, inhibition, significance) (Carcinogen: AZOXYMETHANE (25843-45-2), Dose [Inhibitor]: 0, 0.04% IN DIET 1 WK AFTER END OF DEXTRAN SODIUM SULFATE TREATMENT FOR 14 WKS (STUDY DURATION: 17 WKS), Route [Inhibitor]: DIET, Species: MOUSE, Strain/Sex: CD-1/FEMALE (10,10)/(10,10), Target Tissue: Type of Lesion: COLON: ADENOCARCINOMA, Dose [Carcinogen]: 10 MG/KG ONCE, Promoter: DEXTRAN SODIUM SULFATE (9011-18-1)): 10/10 (100%), 4/10 (40%), 60%, p<0.01
- tumour outcome (control, treated, inhibition, significance) (Carcinogen: AZOXYMETHANE, 25843-45-2, Dose [Inhibitor]: 0, 200 PPM IN DIET FOR DURATION OF STUDY BEGINNING 1D PRIOR TO CARCINOGEN TREATMENT (STUDY DURATION: 30 WK), Route [Inhibitor]: ORAL, Species: MOUSE, Strain/Sex: ICR/MALE, Target Tissue: Type of Lesion: COLON: CARCINOMA, Dose [Carcinogen]: 10 MG/KG BW IN SALINE 1/WK FOR 6 WK, Promoter: NONE USED): 14/28 (50%), 12/37 (32%), 36%, not significant
- tumour outcome (control, treated, inhibition, significance) (Carcinogen: AZOXYMETHANE, 25843-45-2, Dose [Inhibitor]: 0, 400 PPM IN DIET FOR DURATION OF STUDY BEGINNING 1 D PRIOR TO CARCINOGEN TREATMENT (STUDY DURATION: 30 WK), Route [Inhibitor]: ORAL, Species: MOUSE, Strain/Sex: ICR/MALE, Target Tissue: Type of Lesion: COLON: CARCINOMA, Dose [Carcinogen]: 10 MG/KG BW IN SALINE 1/WK FOR 6 WK, Promoter: NONE USED): 14/28 (50%), 10/40 (25%), 50%, p<0.05
- tumour outcome (control, treated, inhibition, significance) (Carcinogen: N-BUTYL-N-(4-HYDROXYBUTYL)NITROSAMINE, 3817-11-6, Dose [Inhibitor]: 0, 100 PPM IN DIET FOR 12 WK BEGINNING POST CARCINOGEN TREATMENT (STUDY DURATION: 20 WK), Route [Inhibitor]: ORAL, Species: RAT, Strain/Sex: F344/MALE, Target Tissue: Type of Lesion: URINARY BLADDER: TRANSITIONAL CELL CARCINOMA, Dose [Carcinogen]: 0.05% IN DRINKING WATER FOR 8 WK, Promoter: NONE USED): 18/20 (90%), 12/20 (60%), 33%, not significant
- tumour outcome (control, treated, inhibition, significance) (Carcinogen: N-BUTYL-N-(4-HYDROXYBUTYL)NITROSAMINE, 3817-11-6, Dose [Inhibitor]: 0, 200 PPM IN DIET FOR 12 WK BEGINNING POST CARCINOGEN TREATMENT (STUDY DURATION: 20 WK), Route [Inhibitor]: ORAL, Species: RAT, Strain/Sex: F344/MALE, Target Tissue: Type of Lesion: URINARY BLADDER: TRANSITIONAL CELL CARCINOMA, Dose [Carcinogen]: 0.05% IN DRINKING WATER FOR 8 WK, Promoter: NONE USED): 18/20 (90%), 8/16 (50%), 44%, p<0.05
- tumour outcome (control, treated, inhibition, significance) (Carcinogen: N-BUTYL-N-(4-HYDROXYBUTYL)NITROSAMINE, 3817-11-6, Dose [Inhibitor]: 0, 400 PPM IN DIET FOR 12 WK BEGINNING POST CARCINOGEN TREATMENT (STUDY DURATION: 20 WK), Route [Inhibitor]: ORAL, Species: RAT, Strain/Sex: F344/MALE, Target Tissue: Type of Lesion: URINARY BLADDER: TRANSITIONAL CELL CARCINOMA, Dose [Carcinogen]: 0.05% IN DRINKING WATER FOR 8 WK, Promoter: NONE USED): 18/20 (90%), 5/19 (26%), 71%, p<0.0002
- tumour outcome (control, treated, inhibition, significance) (Carcinogen: N-METHYL-N-NITROSOUREA [684-93-5], Dose [Inhibitor]: 5 MG/KG BW TWICE WEEKLY BEGINNING 5 D BEFORE FIRST CARCINOGEN DOSE FOR 27 WK (STUDY DURATION: 27 WK), Route [Inhibitor]: SUBCUTANEOUS, Species: RAT, Strain/Sex: SPRAGUE-DAWLEY/FEMALE, Target Tissue: Type of Lesion: MAMMARY GLAND: TUMOR, Dose [Carcinogen]: 50 MG/KG BW TWICE ON POSTNATAL DAYS 51 AND 58): 17/18 (94%), 10/18 (55.6%), 41%, p<0.05

SMILES: CC(C)=CCC1=C(O)[C@@](O)(CC=C(C)C)C(=O)C(C(=O)CC(C)C)=C1O
- tumour outcome (control, treated, inhibition, significance) (Carcinogen: 7,12-DIMETHYLBENZ[A]ANTHRACENE : 57-97-6, Dose [Inhibitor]: 0, 1 MG IN 100 µL ACETONE/DMSO (9:1) 2/WK FOR 17 WK APPLIED 30 MIN PRIOR TO EACH PROMOTER DOSE (STUDY DURATION: 18 WK), Route [Inhibitor]: DERMAL, Species: MOUSE, Strain/Sex: ICR/FEMALE, Target Tissue: Type of Lesion: SKIN: PAPILLOMA, Dose [Carcinogen]: 50 UG IN 100 µL ACETONE ONCE, Promoter: 12-O-TETRADECANOYLPHORBOL-13-ACETATE, 16561-29-8): 100%, 7%, 93%, not calculated

SMILES: O=C(/C=C/c1ccc(O)c(C2C(c3ccc(O)cc3)Oc3cc(O)ccc3C2c2cc(C3OC(c4ccc(O)cc4)C(C(=O)c4ccc(O)cc4O)C3Cc3ccc(O)cc3)c(O)cc2O)c1)c1ccc(O)cc1O (stereo not drawn)
- tumour outcome (control, treated, inhibition, significance) (Carcinogen: 7,12-DIMETHYLBENZ[A]ANTHRACENE, 57-97-6, Dose [Inhibitor]: 0, 16 NMOL 2/WK 1 HR PRIOR TO EACH PROMOTER DOSE FOR 20 WK (STUDY DURATION: 20 WK), Route [Inhibitor]: DERMAL, Species: MOUSE, Strain/Sex: ICR/FEMALE, Target Tissue: Type of Lesion: SKIN: TUMOR, Dose [Carcinogen]: 0.19 UMOL ONCE, Promoter: 12-0-TETRADECANOYLPHORBOL-13-ACETATE, 16561-29-8): 70%, 45%, 36%, not calculated

SMILES: CC(C)(O)CCC(=O)C(C)(O)C1[C@H](O)C[C@@]2(C)[C@@H]3CC=C4[C@@H](C[C@H](O)[C@@H](O)C4(C)C)[C@]3(C)C(=O)C[C@]12C (stereo partly drawn)
- tumour outcome (control, treated, inhibition, significance) (Carcinogen: 7,12-DIMETHYLBENZ[A]ANTHRACENE, 57-97-6, Dose [Inhibitor]: 0, 85 NMOL IN 0.1 ML ACETONE APPLIED 1 HR PRIOR TO EACH PROMOTER DOSE 2/WK FOR 20 WK (STUDY DURATION: 21 WK), Route [Inhibitor]: DERMAL, Species: MOUSE, Strain/Sex: ICR/FEMALE, Target Tissue: Type of Lesion: SKIN: PAPILLOMA, Dose [Carcinogen]: 100 UG IN 0.1 ML ACETONE ONCE, Promoter: 12-O-TETRADECANOYLPHORBOL-13-ACETATE, 16561-29-8): 100%, 100%, 0%, not significant
